These results are taken from patent US6525087B2, “Use of known agonists of the central cannabinoid receptor CB1” (Bayer Aktiengesellschaft, priority 1997, dated 2003).

SMILES strings stand for the structures.

Experiment [1] has as its system glutamate release. Nature of the experiment: Inhibition of glutamate release (rat hippocampus sections, KCl stimulation). It is filed as cell-based. To be noted: 75 mM KCl, ratio S2/S1. As to the method: Inhibition of Glutamate Release
After decapitation of a rat, the skull is opened, and the brain is lifted out and cut through along the median fissure. The hippocampus is exposed, separated from the remaining tissue, cut into 350 μm thick sections and incubated at 37° C. in straining vessels for 60 min. Followed by basal value and stimulation 1 with 75 mM KCl (S 1), the sections are incubated with test substance and then the stimulation with KCl and test substance (S2) is repeated. The glutamate concentration of the samples to be investigated is then measured by means of an enzymatic reaction (GLDH) and fluorometric measurement of NADH. By means of a calibration curve, the glutamate content of the sample is determined, and with knowledge of the protein content the glutamate content/mg of protein can be calculated. The ratio S2/S1 is compared; glutamate release inhibitors reduce this ratio in a concentration-dependent manner.

A short description of experiment [2]: Subdural haematoma in the rat (SDH). In kind it is in vivo. The conditions noted are these: 2 and 4 h after trauma. As to the method: Subdural Haematoma in the Rat (SDH)
Under anaesthesia, the animals' own blood is injected subdurally on one side. An infarct is formed under the haematoma. Substance administration is carried out according to different time schemes and via different administration routes (i.v., i.p.). The infarct size is determined as described in the model of permanent focal ischaemia in the rat (MCA-O).

Experiment [3] in a line: Permanent focal cerebral ischaemia in the rat (MCA-O). It is filed as in vivo. To be noted: 2 and 4 h after occlusion, infarct size after 7 days. As to the method: Permanent Focal Cerebral Ischaemia in the Rat (MCA-O)
Under isoflurane anaesthesia, the median cerebral artery is exposed on one side and the latter and its side branches are irreversibly sealed by means of electrocoagulation. As a result of the intervention a cerebral infarct is formed. During the operation, the body temperature of the animal is kept at 37° C. After wound closure and wearing off of the anaesthesia, the animals are again released into their cage. The administration of substances is carried out according to different time schemes and via different administration routes (i.v., i.p.) after occlusion. The infarct size is determined after 7 days. To do this, the brain is removed, worked up histologically and the infarct volume is determined with the aid of a computer-assisted analysis system.

A short description of experiment [4]: Hypothermia, agonism testing. To be noted: rat, i.v. In kind it is in vivo. The procedure: Five minutes after determination of the basal body temperature via an oesophageal temperature probe, the test substance is administered (i.v.). A control group receives only the solvent for the test substances, likewise i.v. The body temperature is measured 7.5, 15, 30 and 60 minutes after i.v. administration. The group size per dose is 5-7 animals (rats).

Experiment [5] deals with T1, rat cannabinoid receptor CB1 (Rattus norvegicus, UniProt P20272).
T1 construct: contains an open reading frame of 1419 base pairs which corresponds to a protein of 473 amino acids; expressed in transfected cells; host or cells: CHOluc9 reporter cells, stably transfected with plasmid CMV-RH (pRc/CMV)
Nature of the experiment: CB1 luciferase reporter gene test. In kind it is cell-based. The conditions noted are these: CHOCB1 reporter cell line, forskolin-stimulated. Background: A reporter such as luciferase makes a cellular process visible.
Method: CB1 Luciferase Reporter Gene Test
This construct (plasmid CMV-RH) was employed for transfection experiments.
Stable Transfection of the CHOluc9 Reporter Cells
CHOluc9 cells were cultured in 50% Dulbecco's modified Eagle Medium/50% F-12 (DMEM/F12) which contained 10% foetal calf serum (FCS). Transfections were prepared in 6-well plates. 7.5 μg of Qiagen-purified CMV-RH plasmid DNA were added per 10^5 cells with the DOTAP transfections system, corresponding to the experimental protocol of the manufacturer (Boehringer Mannheim). Transfected cells were selected with 1 mg/ml G418 and individual clones were obtained by limiting dilution on 96-well plates. Cell lines which express the cannabinoid receptor were identified in the presence of forskolin for the inhibition of reporter gene expression after incubation with the cannabinoid receptor agonist, WIN-55,2121-2. Several stably transfected and subcloned cell lines were further characterized by means of RT-PCR, as described under 1.
Test Optimization and Pharmacological Characterization of the CHOCB1 Reporter Cell Line
The following test protocol was used for pharmacological characterization of the cells and for robot-assisted substance screening: the stock cultures were cultured in 50% Dulbecco's modified Eagle Medium/50% F-12 (DMEM/F12) with 10% FCS at 37° C. under 10% CO2 and in each case split 1:10 after 2 to 3 days. […]

The next experiment deals with T2, rat cortex membranes (Rattus norvegicus, UniProt P20272).
T2 construct: Membrane protein is prepared from different tissues or from cells by standard methods; from tissue; host or cells: rat cortex membranes
Nature of the experiment: Binding studies on rat cortex membranes. The procedure:
Binding Studies on Rat Cortex Membranes
Membrane protein is prepared from different tissues or from cells by standard methods. Buffer, labelled ligands, DMSO or test substance are pipetted together, then 100 μg of protein are added, and the mixture is well mixed and incubated in a water bath at 30° C. for 60 min. After expiry of the incubation time, the reaction is stopped by addition of ice-cold incubation buffer to each tube. After filtering off, washing is carried out with ¾ ml of incubation buffer. The filters are transferred to minivials and the radioactivity is determined in a liquid scintillation counter.

The conditions of experiment [6]: J. Neurotrauma 1993, 10, 109; cited from earlier work.
The next experiment deals with cannabinoid receptor. To be noted: cited from earlier work.
The subject of experiment [7] is glutamate release. To be noted: Brain Res. references; cited from earlier work.
For experiment [8] the following is noted: Brain Res. references; cited from earlier work.

T2 sequence (P20272 whole entry): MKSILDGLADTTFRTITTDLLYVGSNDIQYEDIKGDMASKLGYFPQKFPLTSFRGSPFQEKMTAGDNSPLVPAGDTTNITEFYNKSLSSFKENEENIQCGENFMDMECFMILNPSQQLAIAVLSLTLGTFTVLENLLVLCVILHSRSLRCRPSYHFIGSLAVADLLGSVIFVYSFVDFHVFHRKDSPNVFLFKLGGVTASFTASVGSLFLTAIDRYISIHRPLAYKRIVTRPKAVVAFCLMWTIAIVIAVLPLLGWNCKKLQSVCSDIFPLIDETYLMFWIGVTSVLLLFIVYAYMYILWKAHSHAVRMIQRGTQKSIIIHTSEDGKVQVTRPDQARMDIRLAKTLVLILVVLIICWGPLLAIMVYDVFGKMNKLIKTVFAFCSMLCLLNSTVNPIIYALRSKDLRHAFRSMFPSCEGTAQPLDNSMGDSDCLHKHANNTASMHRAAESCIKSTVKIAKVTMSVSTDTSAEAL
T1 sequence (P20272 whole entry): as above

For `CCCCCc1cc(O)c2c(c1)OC(C)(C)[C@@H]1CCC(C)=C[C@@H]21` [Example 1], the “Inhibition of glutamate release, % Inhibition @ 1 μM” value with glutamate release [1] is “no effect”. The figures for the “% reduction in the infarct volume” value in [2] (0.3 mg/kg i.v. bolus directly) and in [3] (1.0 mg/kg i.v. bolus directly) were 50% and 31%, respectively. Also, in experiment [4], the “Hypothermia ED−1°C. (necessary dose to achieve a maximum temperature drop of 1° C.)” value was found to be 0.8 mg/kg i.v.
In general, inhibition refers to the share of the control response that was lost under treatment. One may read the IC50 as the concentration that gives 50% inhibition. The low end stands for inhibition by little substance, the high end for a need for much substance. The term Ki denotes the dissociation constant of the complex between target and ligand, obtained from inhibition or displacement. A high value points to lower affinity. As for `CCCCCCC(C)(C)c1cc(O)c2c(c1)OC(C)(C)[C@@H]1CC=C(CO)C[C@@H]21` [Example 5], the inhibition at 1 µM in the experiment on glutamate release [1] was 20%. In experiment [5], this molecule returned an IC50 of 0.48 nM. The figures for the “% reduction in the infarct volume” value in experiment [2] (0.001 mg/kg i.v. bolus directly) and in experiment [3] (0.01 mg/kg i.v. bolus directly) were 58% and 48%, respectively. In addition, the “Hypothermia ED−1°C. (necessary dose to achieve a maximum temperature drop of 1° C.)” value in [4] is 0.01 mg/kg i.v. The Ki at rat cortex membranes came to 1 nM.
As for `CCCCCCC(C)(C)c1ccc([C@@H]2C[C@H](O)CC[C@H]2CCCO)c(O)c1` [Example 15], in experiment [4], the “Hypothermia ED−1°C. (necessary dose to achieve a maximum temperature drop of 1° C.)” value is listed as 0.03 mg/kg i.v.
For `Cc1c(C(=O)c2cccc3ccccc23)c2cccc3c2n1[C@H](CN1CCOCC1)CO3` [Example 18], the inhibition at 1 µM with glutamate release [1] was determined as 50%. Moreover, the “% reduction in the infarct volume” value in experiment [3] (0.03 mg/kg i.v. bolus directly) is 20%. In addition, the “Hypothermia ED−1°C. (necessary dose to achieve a maximum temperature drop of 1° C.)” value in experiment [4] stood at 0.2 mg/kg i.v.
On to `CCCCCCC(C)(C)c1cc(O)c2c(c1)OC(C)(C)[C@@H]1CC=C(CO)C[C@@H]21` [HU210], for which the “neuroprotection in a craniocerebral trauma model” value in experiment [6] was “non-neuroprotective”.
Regarding `CCCCCCC(C)(C)c1cc(O)c2c(c1)OC(C)(C)[C@H]1CC=C(CO)C[C@H]21` [HU-211], the “activity on the cannabinoid receptor” value in the experiment with cannabinoid receptor is “inactive”.
As to `O=C(O)c1cc(=O)c2ccccc2[nH]1` [kynurenic acid], the “inhibition of glutamate release in vitro” value in the experiment with glutamate release [7] is “markedly inhibit glutamate release”.
Consider `Cn1c(=O)c2[nH]cnc2n(C)c1=O` [theophylline], for which the “inhibition of glutamate release in vitro” value in the experiment with glutamate release [7] is reported as “markedly inhibit glutamate release”. Further, the “neuroprotective action in vivo” value in [8] is given as “no neuroprotective action”.
